Measured values: patent US20260192003A1, “CHELATING COMPOUNDS AND METHODS OF USES THEREOF” (THE REGENTS OF THE UNIVERSITY OF CALIFORNIA, priority 2023, published 2026)
Read-outs that look alike come from different tables or passages of the source. Marks after values point to notes of the source that are not given here.

Tests used:
[1] = previous work, similar conditions, room temperature, after 2 months; cited from earlier work
[2] = Arsenazo III dye displacement, indirect kinetics of Th^4+ complexation; format: physicochemical; settings: for k2: 5 μM Th^4+, 25 μM Arsenazo III, 75 μM ligand (15 equiv.), 100 mM HEPES (pH 7.4), 25° C.
Experimental: Another important aspect of chelators for radiopharmaceutical applications is the kinetics of complexation with the radiometal of interest. A ligand must be able to bind the radioactive metal ion rapidly and completely to minimize the extent of radioactive decay before administration in vivo. […] To access the suitability of DOTHOPO and MeDOTHOPO in this context, we sought to determine the kinetics of Th^4+ complexation of these chelators in aqueous solution at 25° C. […] Following literature precedent,^35 the relative rate of metal complexation by these ligands could be studied indirectly using the dye Arsenazo III, which forms highly colored complexes with Th^4+ with a prominent absorbance band at 669 nm.^92 The addition of excess chelator to solutions of Th^4+ and Arsenazo III caused the dye to be displaced and the formation of the metal-chelator complex could be monitored by the disappearance of the absorbance features corresponding to the metal-dye compound (FIG. 4).
The aim of these experiments was to determine a second-order rate constant for the complexation reaction of Th^4+ by DOTHOPO and MeDOTHOPO. […] For comparison purposes, the second-order rate constant of complexation was calculated using the reaction of 15 equiv. of ligand relative to metal (Table 4, see SI for details). The [ThL] (L=DOTHOPO, MeDOTHOPO) complexes form rapidly in aqueous solution. The second-order halflives, calculated for 10 μM each of metal and ligand, are 30 and 18 min for DOTHOPO and MeDOTHOPO respectively. The faster complexation kinetics of MeDOTHOPO compared to DOTHOPO can likely be attributed to the increased flexibility of the ligand.

[3] = UV-vis spectrophotometric titration, cumulative formation constants and pM with Th^4+; format: physicochemical; settings: 25° C., I = 0.1M KCl; for pM, Th^4+: pM = -log[M]free, [M]tot = 10^−6M, [L]tot = 10^−5M, pH 7.4, MeDOTHOPO predicted from Table 2 log β
Text: (§1) We next sought to evaluate the thermodynamic stabilities of the Zr^4+ and Th^4+ complexes of DOTHOPO and MeDOTHOPO by measuring their cumulative formation constants (log βmlh, see Supplementary Information for details). […] Above pH 10, the complexes dissociate to yield the free ligand and metal-hydroxide species, which could be leveraged to determine the stability constants of the Zr^4+ and Th^4+ complexes via UV-vis spectrophotometric titrations (FIGS. 2 and 3). […] The pH dependent species distribution diagrams for DOTHOPO with Zr^4+ and Th^4+ are provided in the Supporting Information. Importantly, the metal remains completely bound by the chelator below pH 10 and the major species present at pH 7.4 is the 1:1 ML complex for both metals. […] As such, the log βmlh values of MeDOTHOPO with Zr^4+ and Th^4+ were predicted to be ≥51 and ≥53, respectively, using Hyss (Table 2).
(§2) The log βmlh values reported above are pH-independent absolute stability constants. Because these ligands have differing pKa values, competition between H^+ and the metal of interest under different pH conditions will give rise to different pH-dependent conditional stability constants that are not accurately described by log βML values. To mitigate this issue and allow for direct comparison between ligands, we calculated the pM values (pM=−log[Mfree], where Mfree=solvated metal ions free of complexation by ligand or hydroxide when [L]=10^−5 M and [M]=10^−6 M)^85 for each ligand with the Fe^3+, Zr^4+, and Th^4+ (Table 3).

[4] = Potentiometric titration, protonation constants (pKa); format: physicochemical; settings: for ΣpKa: sum of the pKa values tentatively assigned to protonation of the HOPO units
Experimental: The protonation constants (pKa) of the synthesized ligands were determined potentiometrically in 0.1 M KCl. […] Based on previous studies involving ligands bearing the tetraazacyclododecane backbone,^80-82 the remaining two pKa values likely correspond to protonation of two of the amine groups present in the macrocycle (Table 1). The 1,2-HOPO donors of MeDOTHOPO are approximately 1 pKa unit more basic than those of 3,4,3-LI-(1,2-HOPO) or DOTHOPO.

[5] = UV-vis spectrophotometric titration, cumulative formation constants and pM with Zr^4+; format: physicochemical; settings: 25° C., I = 0.1M KCl; for pM, Zr^4+: pM = -log[M]free, [M]tot = 10^−6M, [L]tot = 10^−5M, pH 7.4, MeDOTHOPO predicted from Table 2 log β
Text: as §1, §2

[6] = Spectrophotometric titration, cumulative formation constants and pM with Fe^3+; format: physicochemical; settings: 25° C., I = 0.1M KCl; for pM, Fe^3+: pM = -log[M]free, [M]tot = 10^−6M, [L]tot = 10^−5M, pH 7.4
Experimental: The affinity of these ligands for Fe3+ was explored as a representative endogenous metal that could compete with Th^4+ in vivo. The stability constants of DOTHOPO and MeDOTHOPO with Fe^3+ were determined by incremental spectrophotometric titrations, similar to those described for Zr^4+ and Th^4+ in the Supporting Information.
as §2

[7] = 25° C., I = 0.1M KCl; reference 48; cited from earlier work
[8] = cited from earlier work
[9] = 25° C., I = 0.1M KCl; reference 48; cited from earlier work; remark: listed apart in the source
[10] = cited from earlier work; remark: listed apart in the source
[11] = 25° C., I = 0.1M KCl, data taken from Ref. 48
[12] = 25° C., I = 0.1M KCl, reference 48

SMILES | pM, Th^4+ [3] | pKa1 ([4]; 25° C., I = 0.1M KCl, n = 5) | pKa2 ([4]; 25° C., I = 0.1M KCl, n = 5) | pKa3 ([4]; 25° C., I = 0.1M KCl, n = 5) | pKa4 ([4]; 25° C., I = 0.1M KCl, n = 5) | ΣpKa [4] | pM, Zr^4+ [5] | log βmih, Fe^3+, [FeLH] [6] | log βmih, Fe^3+, [FeL]^− [6] | pM, Fe^3+ [6] | k2 [2] | other results
O=C(O)CN1CCN(CC(=O)O)CCN(CC(=O)O)CCN(CC(=O)O)CC1 [DOTA, 1,4,7,10-tetraazacyclododecane-N,N′,N″,N″-1,4,7,10-tetraacetic acid, reference compound] |  |  |  |  |  |  |  |  |  |  |  | displacement of Arsenazo III from Th^4+ [1]: does not displace Arsenazo III; complexation of Th^4+ (Arsenazo III displacement) ([2]; over 24 h at 25° C.): did not show any complexation
O=C(c1cccc(=O)n1O)N1CCN(C(=O)c2cccc(=O)n2O)CCN(C(=O)c2cccc(=O)n2O)CCN(C(=O)c2cccc(=O)n2O)CC1 [DOTHOPO] | 35.3 | 6.43(9) | 5.46(1) | 5.05(3) | 4.28(6) | 21.34 | 43.7 | 33.3(6) | 27.8(4) | 28.7 | 54.2 ± 2.8 M⁻¹ s⁻¹ | log βmih, Th^4+, [ThLH]^+ [3]: 38.5(1); log βmih, Th^4+, [ThL] [3]: 34.4(1); log βmih, Zr^4+, [ZrLH]^+ [5]: 47.0(6); log βmih, Zr^4+, [ZrL] [5]: 42.9(4)
O=C(O)CN(CCN(CC(=O)O)CC(=O)O)CCN(CC(=O)O)CC(=O)O [DTPA, reference compound] |  |  |  |  |  |  |  |  |  |  | 7.9 ± 0.9 M⁻¹ s⁻¹ | 
Cn1ccc(C(=O)NCCN(CCNC(=O)c2ccn(C)c(=O)c2O)CCC(Cc2ccc(NC(=O)CCC(=O)O)cc2)N(CCNC(=O)c2ccn(C)c(=O)c2O)CCNC(=O)c2ccn(C)c(=O)c2O)c(O)c1=O (centres unmarked) [L1] | 39.9 |  |  |  |  |  | 42.9 |  |  | 25.1 |  | log βmih, Zr^4+, [ZrLH]^+ [7]: 50.6(2); log βmih, Zr^4+, [ZrL] [7]: 44.7(1); pKa1 [8, 11]: 2.93(35); pKa2 [8, 11]: 4.39(8)^c; pKa3 [8, 11]: 4.73(34); pKa4 [8, 11]: 5.97(14); pKa5 [8, 11]: 6.90(5); pKa6 [8, 11]: 7.74(6); pKa7 [8, 11]: 9.58(16); ΣpKa ([8]; sum of the pKa values assigned to the HOPO units, Ref. 48): 21.99; log βmih, Fe^3+, [FeLH] [9]: 31.2(4); log βmih, Fe^3+, [FeL]^− [9]: 26.9(3); log βmih, Th^4+, [ThH−1L]^2− [10, 12]: 32.4(4); log βmih, Th^4+, [ThLH] [10, 12]: 45.9(4); log βmih, Th^4+, [ThL]^− [10, 12]: 41.7(3); log βThL ([10]; background, literature value): 41.72
O=c1cccc(CN2CCN(Cc3cccc(=O)n3O)CCN(Cc3cccc(=O)n3O)CCN(Cc3cccc(=O)n3O)CC2)n1O [MeDOTHOPO, 1,4,7,10-tetraazacyclododecane-1,4,7,10-tetra(methylene)tetrakis(1-hydroxy-2-pyridinone)] | >48^b | 10.52(6) | 9.1(2) | 7.79(8) | 6.63(3) | 24.96 | >46^b | 39.5(4) | 30.3(2) | 27.6 | 89.2 ± 8.5 M⁻¹ s⁻¹ | pKa5 ([4]; 25° C., I = 0.1M KCl, n = 5): 6.06(3); pKa6 ([4]; 25° C., I = 0.1M KCl, n = 5): 4.41(6)
